Assay [1] addresses T1, SUR1 (Rattus norvegicus, UniProt Q09429). The experiment in a line: [3H]-glibenclamide displacement in SUR1-expressing HEK293t cells under illumination. Format: cell-based. Also noted: gene Abcc8.
Target sequence in this assay (Q09429 whole entry): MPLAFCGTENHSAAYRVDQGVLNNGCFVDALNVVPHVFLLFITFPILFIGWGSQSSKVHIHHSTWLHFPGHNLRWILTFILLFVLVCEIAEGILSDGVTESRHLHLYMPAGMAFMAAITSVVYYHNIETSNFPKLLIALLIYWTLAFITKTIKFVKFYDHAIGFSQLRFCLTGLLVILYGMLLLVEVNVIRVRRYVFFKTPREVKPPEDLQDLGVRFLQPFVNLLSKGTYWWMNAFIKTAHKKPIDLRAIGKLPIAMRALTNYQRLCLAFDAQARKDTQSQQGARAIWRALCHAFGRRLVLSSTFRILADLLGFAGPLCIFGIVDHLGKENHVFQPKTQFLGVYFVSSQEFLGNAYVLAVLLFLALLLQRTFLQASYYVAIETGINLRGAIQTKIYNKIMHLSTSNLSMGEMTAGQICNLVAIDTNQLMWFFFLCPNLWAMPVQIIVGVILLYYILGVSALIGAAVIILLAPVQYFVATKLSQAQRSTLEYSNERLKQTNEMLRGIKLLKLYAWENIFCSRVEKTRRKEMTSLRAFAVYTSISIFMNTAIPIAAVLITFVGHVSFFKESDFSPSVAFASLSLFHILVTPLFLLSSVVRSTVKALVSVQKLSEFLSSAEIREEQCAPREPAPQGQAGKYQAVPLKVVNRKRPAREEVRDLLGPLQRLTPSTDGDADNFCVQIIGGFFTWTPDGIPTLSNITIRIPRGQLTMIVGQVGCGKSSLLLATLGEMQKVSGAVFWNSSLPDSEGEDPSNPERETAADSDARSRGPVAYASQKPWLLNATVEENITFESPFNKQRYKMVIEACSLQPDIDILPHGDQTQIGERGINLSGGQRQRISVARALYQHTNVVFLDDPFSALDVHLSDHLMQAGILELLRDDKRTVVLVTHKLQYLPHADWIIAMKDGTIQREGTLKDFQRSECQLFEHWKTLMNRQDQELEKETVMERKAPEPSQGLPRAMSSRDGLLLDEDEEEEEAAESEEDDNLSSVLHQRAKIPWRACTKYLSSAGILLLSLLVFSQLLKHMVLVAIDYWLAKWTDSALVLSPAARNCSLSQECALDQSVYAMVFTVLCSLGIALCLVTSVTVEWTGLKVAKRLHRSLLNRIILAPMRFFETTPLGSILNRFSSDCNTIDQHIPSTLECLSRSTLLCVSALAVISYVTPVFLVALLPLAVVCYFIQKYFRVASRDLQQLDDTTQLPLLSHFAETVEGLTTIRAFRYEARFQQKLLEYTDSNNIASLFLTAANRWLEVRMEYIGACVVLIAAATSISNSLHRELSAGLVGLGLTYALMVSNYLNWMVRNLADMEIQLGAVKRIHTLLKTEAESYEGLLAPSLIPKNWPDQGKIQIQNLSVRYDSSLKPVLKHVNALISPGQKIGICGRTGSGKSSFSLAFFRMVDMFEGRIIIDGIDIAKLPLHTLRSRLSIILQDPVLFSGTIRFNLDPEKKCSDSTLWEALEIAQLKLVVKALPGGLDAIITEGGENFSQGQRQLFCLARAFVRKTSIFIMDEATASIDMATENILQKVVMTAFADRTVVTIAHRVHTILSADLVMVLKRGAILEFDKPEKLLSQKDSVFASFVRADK
The target of assay [2] is T1, SUR1. In words: whole-cell patch clamp of heterologous KATP channels, […] tolbutamide. Set-up: gene Abcc8; rat SUR1 (Genbank L40624) co-expressed with Kir6.2 in HEK293t cells; with Kir6.2. Type of assay: cell-based.
Target sequence in this assay (Q09429 whole entry): as above
Target sequence in this assay (Q61743 whole entry partner): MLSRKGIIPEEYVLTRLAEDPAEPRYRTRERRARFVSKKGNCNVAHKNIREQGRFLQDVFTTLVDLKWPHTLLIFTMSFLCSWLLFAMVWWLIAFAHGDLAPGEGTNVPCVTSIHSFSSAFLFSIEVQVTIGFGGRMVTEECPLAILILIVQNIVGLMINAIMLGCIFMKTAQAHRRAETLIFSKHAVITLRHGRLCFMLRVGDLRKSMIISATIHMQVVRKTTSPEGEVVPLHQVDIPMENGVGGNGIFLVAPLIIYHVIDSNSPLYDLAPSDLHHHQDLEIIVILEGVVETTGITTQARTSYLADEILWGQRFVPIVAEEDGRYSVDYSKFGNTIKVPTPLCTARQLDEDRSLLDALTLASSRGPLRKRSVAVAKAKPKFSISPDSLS

Here are results for 2 molecules from PMC4208094, “Optical control of insulin release using a photoswitchable sulfonylurea” (Nature Communications, 2014).

One may read the IC50 as the concentration that inhibits the measured activity by half. Read a high IC50 as weaker potency in that assay. In turn, `CCN(CC)c1ccc(/N=N\c2ccc(S(=O)(=O)NC(=O)NC3CCCCC3)cc2)cc1` [JB253, (Z)-N-(cyclohexylcarbamoyl)-4-((4-(diethylamino)phenyl)diazenyl)benzenesulfonamide] came in with an IC50 on SUR1 [1] of 14.8 µM.

Turning to `CCCCNC(=O)NS(=O)(=O)c1ccc(C)cc1` [tolbutamide], the KATP current response result on SUR1 [2] is “Tolbutamide and diazoxide-sensitive inward-rectifying K^+ currents could be recorded in transfected cells”.
